Assay results reported in PubChem BioAssay AID192 (DTP/NCI, 2004).
Values joined by “and” are separate entries in the source; they are usually repeats but may differ in a detail not shown here. Equal values may be shown once. Inconclusive results and toxic doses are left out. Rule for the calls: active = survival T/C of 150% or more; inactive = T/C below 125% in these data. Peptide text beside a SMILES is read from it. * marks the point of attachment. Cbz = O=C(OCc1ccccc1)*

Test system: BDF1 mice, B16 melanoma ip, median survival T/C
Experiment: NCI In Vivo Anticancer Drug Screen. Data for tumor model B16 Melanoma (intraperitoneal) in B6D2F1 (BDF1) mice
Settings: endpoint: median survival time, higher = longer survival
Summary of the method: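 Mice with transplantable tumors; drug vs vehicle groups; endpoint survival or tumor size; value = T/C.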

[1] = dose: 100.0 mg/kg/injection, schedule: Q01DX009 (ip), vehicle: saline with Tween-80
[2] = dose: 200.0 mg/kg/injection, schedule: Q01DX009 (ip), vehicle: saline with Tween-80
[3] = dose: 400.0 mg/kg/injection, schedule: Q01DX009 (ip), vehicle: saline with Tween-80
[4] = dose: 12.5 mg/kg/injection, schedule: Q01DX009 (ip), vehicle: saline
[5] = dose: 25.0 mg/kg/injection, schedule: Q01DX009 (ip), vehicle: saline
[6] = dose: 50.0 mg/kg/injection, schedule: Q01DX009 (ip), vehicle: saline
[7] = dose: 1.56 mg/kg/injection, schedule: Q01DX009 (ip), vehicle: saline with Tween-80
[8] = dose: 3.12 mg/kg/injection, schedule: Q01DX009 (ip), vehicle: saline with Tween-80
[9] = dose: 6.25 mg/kg/injection, schedule: Q01DX009 (ip), vehicle: saline with Tween-80
[10] = dose: 12.5 mg/kg/injection, schedule: Q01DX009 (ip), vehicle: saline with Tween-80
[11] = dose: 25.0 mg/kg/injection, schedule: Q01DX009 (ip), vehicle: saline with Tween-80
[12] = dose: 1.56 mg/kg/injection, schedule: Q01DX009 (ip), vehicle: Klucel (hydroxypropylcellulose) (HPC)
[13] = dose: 6.25 mg/kg/injection, schedule: Q01DX009 (ip), vehicle: Klucel (hydroxypropylcellulose) (HPC)
[14] = dose: 50.0 mg/kg/injection, schedule: Q01DX009 (ip), vehicle: saline with Tween-80
[15] = dose: 12.5 mg/kg/injection, schedule: Q01DX009 (ip), vehicle: Klucel (hydroxypropylcellulose) (HPC)
[16] = dose: 25.0 mg/kg/injection, schedule: Q01DX009 (ip), vehicle: Klucel (hydroxypropylcellulose) (HPC)
[17] = dose: 50.0 mg/kg/injection, schedule: Q01DX009 (ip), vehicle: Klucel (hydroxypropylcellulose) (HPC)
[18] = dose: 100.0 mg/kg/injection, schedule: Q01DX009 (ip), vehicle: Klucel (hydroxypropylcellulose) (HPC)
[19] = dose: 200.0 mg/kg/injection, schedule: Q01DX009 (ip), vehicle: Klucel (hydroxypropylcellulose) (HPC)
[20] = dose: 3.13 mg/kg/injection, schedule: Q01DX009 (ip), vehicle: saline with Tween-80
[21] = dose: 3.12 mg/kg/injection, schedule: Q01DX009 (ip), vehicle: Klucel (hydroxypropylcellulose) (HPC)

Measured: T/C

O=S(=O)(Nc1ccc(O)cc1)c1ccccc1
inactive: [1] 97 % of control | [2] 93 % of control | [3] 90 % of control

CNCCC=C1c2ccccc2CCc2ccccc21
inactive: dose: 6.25 mg/kg/injection, schedule: Q01DX009 (ip), vehicle: saline 102 % of control | [4] 97 % of control | [5] 102 % of control

COC(=O)C1(C(=O)OC)CC1CCl (configuration not stated)
inactive: dose: 100.0 mg/kg/injection, schedule: Q04DX003 (ip), vehicle: saline with Tween-80 90 % of control | dose: 200.0 mg/kg/injection, schedule: Q04DX003 (ip), vehicle: saline with Tween-80 96 % of control

CN(C)CCC1CCCCN1 (configuration not stated)
inactive: [5] 112 % of control | [6] 100 % of control | dose: 100.0 mg/kg/injection, schedule: Q01DX009 (ip), vehicle: saline 100 % of control

O=C(CCCc1ccc(N(CCCl)CCCl)cc1)Nc1ncccn1
inactive: dose: 3.0 mg/kg/injection, schedule: Q01DX009 (ip), vehicle: Klucel (hydroxypropylcellulose) (HPC) 104 % of control | dose: 6.0 mg/kg/injection, schedule: Q01DX009 (ip), vehicle: Klucel (hydroxypropylcellulose) (HPC) 109 % of control | dose: 12.0 mg/kg/injection, schedule: Q01DX009 (ip), vehicle: Klucel (hydroxypropylcellulose) (HPC) 109 % of control

C1CN2CCC1CC2
inactive: [7] 102 % of control | [8] 102 % of control | [9] 92 % of control and 99 % of control | [10] 86 % of control and 91 % of control | [11] 86 % of control and 91 % of control

Cl/C(=N\Nc1ccccc1)c1ccccc1
inactive: [12] 97 % of control | dose: 3.13 mg/kg/injection, schedule: Q01DX009 (ip), vehicle: Klucel (hydroxypropylcellulose) (HPC) 86 % of control | [13] 90 % of control

CC1=CC(=O)N(NC(N)=O)C1=O
inactive: [4] 107 % of control | [5] 96 % of control | [6] 87 % of control

Cn1ccc(=Nc2ccc(NC(=O)c3ccc(N=c4ccn(C)c5ccc([N+](=O)[O-])cc45)cc3[N+](=O)[O-])cc2)cc1
inactive: [10] 96 % of control | [11] 97 % of control | [14] 97 % of control | [1] 105 % of control | [2] 97 % of control | [3] 91 % of control

CSCCC(NC(=O)C(Cc1ccccc1)NC(=O)OCc1ccccc1)C(=O)O (stereo not drawn) (Cbz-Phe-Met-OH; configuration not given here)
inactive: [14] 97 % of control | [1] 93 % of control

CC(=O)CCN1C(=O)c2ccccc2C1=O
inactive: [15] 96 % of control | [16] 103 % of control | [17] 95 % of control (2×) and 101 % of control | [18] 99 % of control and 102 % of control | [19] 94 % of control and 98 % of control and 112 % of control

[Cl][Ni][Cl].[NH-]CCN1CC1.[NH-]CCN1CC1
inactive: dose: 0.78 mg/kg/injection, schedule: Q01DX009 (ip), vehicle: saline 98 % of control | dose: 1.56 mg/kg/injection, schedule: Q01DX009 (ip), vehicle: saline 97 % of control | dose: 3.12 mg/kg/injection, schedule: Q01DX009 (ip), vehicle: saline 90 % of control

ClC1CCC[N-]C1.ClC1CCC[N-]C1.[Cl][Pt+2]([Cl])([Cl])[Cl] (configuration not stated)
inactive: dose: 0.78 mg/kg/injection, schedule: Q01DX009 (ip), vehicle: saline with Tween-80 105 % of control | [7] 100 % of control | [20] 97 % of control | [9] 106 % of control

O=C(O)c1c(O)c(-c2ccccc2)nc2ccccc12
inactive: [17] 103 % of control | [18] 103 % of control

S=C1SCN(Cc2ccccc2)CN1Cc1ccccc1
inactive: [16] 102 % of control and 120 % of control | [17] 102 % of control and 108 % of control | [18] 90 % of control and 97 % of control and 105 % of control

COc1ccc(C(=O)c2no[n+]([O-])c2C(=O)c2ccc(OC)cc2)cc1
inactive: [10] 95 % of control | [11] 107 % of control | [14] 101 % of control | [1] 95 % of control | [2] 87 % of control | [3] 113 % of control

OCC1OC(n2cnc3c2NC=NC[C@H]3O)CC1O (some centres not stated)
inactive: dose: 0.06 mg/kg/injection, schedule: Q01DX009 (ip), vehicle: saline 109 % of control | dose: 0.12 mg/kg/injection, schedule: Q01DX009 (ip), vehicle: saline 104 % of control | dose: 0.25 mg/kg/injection, schedule: Q01DX009 (ip), vehicle: saline 101 % of control and 103 % of control | dose: 0.5 mg/kg/injection, schedule: Q01DX009 (ip), vehicle: saline 102 % of control and 106 % of control | dose: 1.0 mg/kg/injection, schedule: Q01DX009 (ip), vehicle: saline 90 % of control and 98 % of control | dose: 2.0 mg/kg/injection, schedule: Q01DX009 (ip), vehicle: saline 86 % of control

CSc1nc(Cl)c(Br)c(Cl)n1
inactive: [7] 110 % of control | [20] 112 % of control | [9] 102 % of control | [10] 108 % of control

CN1C(=O)CCS(=O)(=O)C1c1ccc(Cl)c(Cl)c1 (configuration not stated)
inactive: dose: 0.39 mg/kg/injection, schedule: Q01DX009 (ip), vehicle: Klucel (hydroxypropylcellulose) (HPC) 103 % of control | dose: 0.78 mg/kg/injection, schedule: Q01DX009 (ip), vehicle: Klucel (hydroxypropylcellulose) (HPC) 87 % of control | [12] 109 % of control and 116 % of control | [21] 111 % of control and 118 % of control | [13] 103 % of control and 111 % of control | [15] 97 % of control | [17] 90 % of control

O=C(O)C1Cc2c([nH]c3ccccc23)C(CCCCO)N1 (configuration not stated)
inactive: [13] 99 % of control | [15] 101 % of control | [16] 107 % of control

CCOC(CCC#N)c1ccc(Cl)cc1 (configuration not stated)
inactive: [1] 98 % of control | [2] 96 % of control | [3] 97 % of control

COC1C=COC2(C)Oc3c(C)c(O)c4c(c3C2=O)/C(=N/C2CCC(O)OC2C)C=C(NC(=O)/C(C)=C\C(=O)C2CC2C(O)C(C)C(O)C(C)C(OC(C)=O)C1C)C4=O (configuration not stated)
inactive: dose: 4.6 mg/kg/injection, schedule: Q01DX009 (ip), vehicle: saline with Tween-80 98 % of control | dose: 18.5 mg/kg/injection, schedule: Q01DX009 (ip), vehicle: saline with Tween-80 97 % of control

Cc1ccc2nc(-c3cc(Br)ccc3O)c(-c3cc(Br)ccc3O)nc2c1
inactive: [18] 90 % of control | [19] 88 % of control

Nc1ccccc1SC1CC(=O)N(c2cccc3ccccc23)C1=O (configuration not stated)
inactive: [12] 98 % of control | [21] 96 % of control | [13] 88 % of control and 94 % of control | [15] 86 % of control | [18] 94 % of control and 96 % of control | dose: 100.0 mg/kg/injection, schedule: Q04DX003 (ip), vehicle: Klucel (hydroxypropylcellulose) (HPC) 100 % of control | [19] 92 % of control | dose: 200.0 mg/kg/injection, schedule: Q04DX003 (ip), vehicle: Klucel (hydroxypropylcellulose) (HPC) 100 % of control | dose: 400.0 mg/kg/injection, schedule: Q01DX009 (ip), vehicle: Klucel (hydroxypropylcellulose) (HPC) 92 % of control | dose: 400.0 mg/kg/injection, schedule: Q04DX003 (ip), vehicle: Klucel (hydroxypropylcellulose) (HPC) 93 % of control

O=C1c2cccc3cc([N+](=O)[O-])cc(c23)C(=O)N1CCN1CCCC1
inactive: [7] 109 % of control | [8] 110 % of control and 111 % of control | [9] 91 % of control and 118 % of control | [11] 110 % of control
